Inconclusive results and toxic doses are left out. No stated cut-off is given here; in the data, active means T/C of 150% or more; inactive means T/C below 125%.
Tested on: L1210 leukemia ip in BDF1 mice, survival T/C
Assay: NCI In Vivo Anticancer Drug Screen. Data for tumor model L1210 Leukemia (intraperitoneal) in B6D2F1 (BDF1) mice
Details: endpoint: mean survival time, higher = longer survival
How it was run: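 Transplantable tumor model; survival measured in treated vs vehicle control mice. Value = treated/control.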

[1] = dose: 100.0 mg/kg/injection, schedule: Q01DX001 (ip), vehicle: saline
[2] = dose: 200.0 mg/kg/injection, schedule: Q01DX001 (ip), vehicle: saline
[3] = dose: 400.0 mg/kg/injection, schedule: Q01DX001 (ip), vehicle: saline
[4] = dose: 100.0 mg/kg/injection, schedule: Q04DX003 (ip), vehicle: Klucel (hydroxypropylcellulose) (HPC)
[5] = dose: 200.0 mg/kg/injection, schedule: Q04DX003 (ip), vehicle: Klucel (hydroxypropylcellulose) (HPC)
[6] = dose: 100.0 mg/kg/injection, schedule: Q04DX002 (ip), vehicle: Klucel (hydroxypropylcellulose) (HPC)
[7] = dose: 200.0 mg/kg/injection, schedule: Q04DX002 (ip), vehicle: Klucel (hydroxypropylcellulose) (HPC)
[8] = dose: 400.0 mg/kg/injection, schedule: Q04DX002 (ip), vehicle: Klucel (hydroxypropylcellulose) (HPC)
[9] = dose: 100.0 mg/kg/injection, schedule: Q01DX009 (ip), vehicle: saline
[10] = dose: 400.0 mg/kg/injection, schedule: Q04DX003 (ip), vehicle: Klucel (hydroxypropylcellulose) (HPC)
[11] = dose: 200.0 mg/kg/injection, schedule: Q01DX001 (ip), vehicle: carboxymethylcellulose (CMC)
[12] = dose: 100.0 mg/kg/injection, schedule: Q04DX002 (ip), vehicle: saline with Tween-80
[13] = dose: 200.0 mg/kg/injection, schedule: Q04DX002 (ip), vehicle: saline with Tween-80

Measured: T/C

c1ccc2nc3c(nc2c1)[nH]c1ccccc13
inactive: dose: 62.5 mg/kg/injection, schedule: Q01DX Z (ip), vehicle: carboxymethylcellulose (CMC) 94 % of control | dose: 125.0 mg/kg/injection, schedule: Q01DX Z (ip), vehicle: carboxymethylcellulose (CMC) 100 % of control | dose: 250.0 mg/kg/injection, schedule: Q01DX Z (ip), vehicle: carboxymethylcellulose (CMC) 95 % of control | dose: 500.0 mg/kg/injection, schedule: Q01DX Z (ip), vehicle: carboxymethylcellulose (CMC) 91 % of control

ClCCCSCCCCl
inactive: dose: 50.0 mg/kg/injection, schedule: Q01DX001 (ip), vehicle: saline 103 % of control | [1] 112 % of control | [2] 124 % of control | [3] 95 % of control

CC(CCN1CCOCC1)(CNC1=NCCN1)c1cccc2ccccc12 (configuration not stated)
inactive: dose: 5.0 mg/kg/injection, schedule: Q01DX009 (ip), vehicle: saline with Tween-80 100 % of control | dose: 10.0 mg/kg/injection, schedule: Q01DX009 (ip), vehicle: saline with Tween-80 96 % of control | dose: 20.0 mg/kg/injection, schedule: Q01DX009 (ip), vehicle: saline with Tween-80 103 % of control

CC(C)C[As](=O)(O)O
inactive: [4] 106 % of control | [5] 95 % of control

O=c1c(O)c(-c2ccc(O)cc2O)oc2cc(O)cc(O)c12
inactive: dose: 100.0 mg/kg/injection, schedule: Q01DX009 (ip), vehicle: saline with Tween-80 103 % of control | dose: 200.0 mg/kg/injection, schedule: Q01DX009 (ip), vehicle: saline with Tween-80 98 % of control | dose: 400.0 mg/kg/injection, schedule: Q01DX009 (ip), vehicle: saline with Tween-80 90 % of control

COc1ccc(C)cc1NC(=O)Nc1cc([N+](=O)[O-])ccc1F
inactive: [6] 87 % of control | [7] 104 % of control | [8] 108 % of control

Cc1c[nH]c2nccnc12
inactive: dose: 100.0 mg/kg/injection, schedule: Q01DX009 (ip), vehicle: water 102 % of control | dose: 100.0 mg/kg/injection, schedule: Q04DX003 (ip), vehicle: water 108 % of control | dose: 200.0 mg/kg/injection, schedule: Q01DX009 (ip), vehicle: water 96 % of control | dose: 200.0 mg/kg/injection, schedule: Q04DX003 (ip), vehicle: water 98 % of control | dose: 400.0 mg/kg/injection, schedule: Q01DX009 (ip), vehicle: water 105 % of control | dose: 400.0 mg/kg/injection, schedule: Q04DX003 (ip), vehicle: water 101 % of control

Cc1cc(NC(=O)Nc2ccc(C3=NCCCN3)cc2)ccc1NC(=O)Nc1ccc(C2=NCCCN2)cc1
active: dose: 7.5 mg/kg/injection, schedule: Q01DX Z (ip), vehicle: water 167 % of control | dose: 10.0 mg/kg/injection, schedule: Q01DX Z (ip), vehicle: water 220 % of control | [9] 163 % of control
inactive: dose: 3.0 mg/kg/injection, schedule: Q01DX Z (ip), vehicle: water 113 % of control | dose: 4.5 mg/kg/injection, schedule: Q01DX Z (ip), vehicle: water 119 % of control | dose: 6.0 mg/kg/injection, schedule: Q01DX Z (ip), vehicle: water 109 % of control | dose: 25.0 mg/kg/injection, schedule: Q01DX Z (oral), vehicle: water 109 % of control | dose: 50.0 mg/kg/injection, schedule: Q01DX Z (oral), vehicle: water 103 % of control | dose: 100.0 mg/kg/injection, schedule: Q01DX Z (oral), vehicle: water 105 % of control | dose: 200.0 mg/kg/injection, schedule: Q01DX Z (oral), vehicle: water 109 % of control

CCCCCCCCCCCCCCCCNS(=O)(=O)c1ccc(Br)cc1
inactive: dose: 100.0 mg/kg/injection, schedule: Q01DX001 (ip), vehicle: Klucel (hydroxypropylcellulose) (HPC) 96 % of control | [4] 91 % of control | dose: 200.0 mg/kg/injection, schedule: Q01DX001 (ip), vehicle: Klucel (hydroxypropylcellulose) (HPC) 93 % of control | [5] 95 % of control | dose: 400.0 mg/kg/injection, schedule: Q01DX001 (ip), vehicle: Klucel (hydroxypropylcellulose) (HPC) 96 % of control | [10] 103 % of control

NC(=O)NC(=O)NC(N)=O
inactive: [6] 94 % of control | [7] 102 % of control | [8] 102 % of control

COC(=O)Cc1c(C(=O)OC)c(O)cc(O)c1C(=O)OC
inactive: dose: 50.0 mg/kg/injection, schedule: Q01DX001 (ip), vehicle: carboxymethylcellulose (CMC) 100 % of control | dose: 100.0 mg/kg/injection, schedule: Q01DX001 (ip), vehicle: carboxymethylcellulose (CMC) 97 % of control | [11] 100 % of control | dose: 400.0 mg/kg/injection, schedule: Q01DX001 (ip), vehicle: carboxymethylcellulose (CMC) 100 % of control

CCCCNC(C)(C)C(SS)c1ccco1 (configuration not stated)
inactive: dose: 12.5 mg/kg/injection, schedule: Q04DX003 (ip), vehicle: alcohol 104 % of control | dose: 25.0 mg/kg/injection, schedule: Q01DX009 (ip), vehicle: saline 97 % of control | dose: 25.0 mg/kg/injection, schedule: Q04DX003 (ip), vehicle: alcohol 101 % of control | dose: 50.0 mg/kg/injection, schedule: Q01DX009 (ip), vehicle: saline 92 % of control | dose: 50.0 mg/kg/injection, schedule: Q04DX003 (ip), vehicle: alcohol 96 % of control | [9] 98 % of control | dose: 100.0 mg/kg/injection, schedule: Q04DX003 (ip), vehicle: alcohol 101 % of control | dose: 150.0 mg/kg/injection, schedule: Q01DX009 (ip), vehicle: saline with Tween-80 92 % of control | dose: 200.0 mg/kg/injection, schedule: Q04DX003 (ip), vehicle: alcohol 104 % of control

O=C1OC(CO)C(O)C1O (configuration not stated)
inactive: [1] 101 % of control | [2] 95 % of control | [3] 91 % of control

CCOC(=O)C(OCc1ccccc1)(C(=O)Cl)C(C)C (configuration not stated)
inactive: dose: 6.25 mg/kg/injection, schedule: Q01DX009 (ip), vehicle: saline with Tween-80 98 % of control | dose: 6.25 mg/kg/injection, schedule: Q04DX003 (ip), vehicle: saline 93 % of control | dose: 12.5 mg/kg/injection, schedule: Q01DX009 (ip), vehicle: saline with Tween-80 100 % of control | dose: 12.5 mg/kg/injection, schedule: Q04DX003 (ip), vehicle: saline 97 % of control | dose: 25.0 mg/kg/injection, schedule: Q01DX009 (ip), vehicle: saline with Tween-80 98 % of control | dose: 25.0 mg/kg/injection, schedule: Q04DX003 (ip), vehicle: saline 92 % of control | dose: 50.0 mg/kg/injection, schedule: Q04DX003 (ip), vehicle: saline 103 % of control

Cc1cccc(Cl)c1OCC(N)=O
inactive: [12] 111 % of control | [13] 103 % of control | dose: 400.0 mg/kg/injection, schedule: Q04DX002 (ip), vehicle: saline with Tween-80 111 % of control

COc1cc(C=Nc2cc(Br)c(OC)c(Br)c2)ccc1N(CCCl)CCCl
active: dose: 150.0 mg/kg/injection, schedule: Q01DX001 (ip), vehicle: carboxymethylcellulose (CMC) 150 % of control
inactive: dose: 19.0 mg/kg/injection, schedule: Q01DX001 (ip), vehicle: carboxymethylcellulose (CMC) 118 % of control | dose: 29.0 mg/kg/injection, schedule: Q01DX001 (ip), vehicle: carboxymethylcellulose (CMC) 118 % of control | [11] 104 % of control

O=[N+]([O-])c1ccc2c3c(ccc(Br)c13)CC2
inactive: dose: 100.0 mg/kg/injection, schedule: Q01DX009 (ip), vehicle: saline sonified 103 % of control | [4] 106 % of control | dose: 200.0 mg/kg/injection, schedule: Q01DX009 (ip), vehicle: saline sonified 103 % of control | [5] 98 % of control | dose: 400.0 mg/kg/injection, schedule: Q01DX009 (ip), vehicle: saline sonified 100 % of control | [10] 92 % of control

CC(C)(C)OC(=O)CNC(=O)CCl
inactive: dose: 100.0 mg/kg/injection, schedule: Q04DX003 (ip), vehicle: saline 96 % of control | dose: 200.0 mg/kg/injection, schedule: Q04DX003 (ip), vehicle: saline 95 % of control

O=C(O)c1ccc[n+]([O-])c1
inactive: dose: 100.0 mg/kg/injection, schedule: Q04DX003 (ip), vehicle: saline with Tween-80 100 % of control | dose: 200.0 mg/kg/injection, schedule: Q04DX003 (ip), vehicle: saline with Tween-80 100 % of control

NC(N)=NC(N)=Nc1ccc(Cl)cc1
inactive: [4] 103 % of control

N#C/C(=C\C1CC(Br)CCC1O)C1CCC([N+](=O)[O-])CC1 (configuration not stated)
inactive: [12] 97 % of control | [13] 86 % of control

Source: PubChem BioAssay AID248 (DTP/NCI, 2004)
